Laboratory results published in the supplement of paper PMC10307832.

Key:
Assay in all cases: relative viability (nuclei count vs DMSO), 5 days (fraction); higher = more cells survive
[1] = system: HCC-15
Method in brief: (§1)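 After 5 days of treatment, lung cancer cells in 1536-well plates were fixed and stained in a single step (final 0.05% Triton X-100, 1% formaldehyde, 1 ug/ml Hoechst) and their nuclei counted on 4× images. Treatment had been applied by pin tool the day after seeding as one drug alone or as a fixed anchor-drug dose with five library-drug doses (not always all listed) in √10 steps. Relative viability is the nuclei count of treated wells divided by that of vehicle wells, and values are medians of duplicate plates.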

[2] = system: SK-LU-1
Method in brief: as §1

[3] = system: NCI-H1993
Method in brief: as §1

[4] = system: NCI-H1915
Method in brief: as §1

[5] = system: PC-3 [JPC-3]
Method in brief: as §1

[6] = system: NCI-H3122
Method in brief: as §1

[7] = system: NCI-H596
Method in brief: as §1

[8] = system: EKVX
Method in brief: as §1

[9] = system: RERF-LC-KJ
Method in brief: as §1

[10] = system: HCC-827
Method in brief: as §1

[11] = system: NCI-H1755
Method in brief: as §1

[12] = system: COR-L 105
Method in brief: as §1

[13] = system: LC-2-ad
Method in brief: as §1

[14] = system: COR-L23
Method in brief: as §1

[15] = system: LCLC-97TM1
Method in brief: as §1

[16] = system: HCC-366
Method in brief: as §1

[17] = system: BEN
Method in brief: as §1

[18] = system: LU99A
Method in brief: as §1

`COCC1(CO)C(=O)C2CCN1CC2` (configuration not stated) [PRIMA-1MET] + CC(C)C[C@H](NC(=O)[C@H](Cc1ccccc1)NC(=O)c1cnccn1)B(O)O [Bortezomib] (partner 0.002 µM) showed a relative viability ([1]; first compound 0.2 µM) of 1.02, a relative viability ([1]; first compound 0.6325 µM) of 0.902 and a relative viability ([1]; first compound 2 µM) of 1.12. The relative viability ([1]; first compound 6.325 µM) was 0.988, the relative viability ([1]; first compound 20 µM) was 0.583 and the relative viability ([2]; first compound 0.2 µM) was 1.42. For the same molecule, the relative viability ([2]; first compound 0.6325 µM) was 1.07, the relative viability ([2]; first compound 6.325 µM) was 1.2 and the relative viability ([2]; first compound 20 µM) was 0.617. For the same molecule, the relative viability ([3]; first compound 0.2 µM) was 1.21, the relative viability ([3]; first compound 0.6325 µM) was 1.07 and the relative viability ([3]; first compound 2 µM) was 1.94. The relative viability ([3]; first compound 6.325 µM) was 1.02, the relative viability ([3]; first compound 20 µM) was 1.24 and the relative viability ([4]; first compound 0.2 µM) was 1.07. The relative viability ([4]; first compound 0.6325 µM) was 0.695, the relative viability ([4]; first compound 2 µM) was 0.918 and the relative viability ([4]; first compound 6.325 µM) was 0.764. It also gave a relative viability ([4]; first compound 20 µM) of 0.956, a relative viability ([5]; first compound 0.2 µM) of 0.958 and a relative viability ([5]; first compound 0.6325 µM) of 0.688. The relative viability ([5]; first compound 2 µM) was 0.874, the relative viability ([5]; first compound 6.325 µM) was 0.858 and the relative viability ([5]; first compound 20 µM) was 0.792. The relative viability ([6]; first compound 0.2 µM) was 0.865, the relative viability ([6]; first compound 0.6325 µM) was 1.01 and the relative viability ([6]; first compound 2 µM) was 0.955. For the same molecule, the relative viability ([6]; first compound 6.325 µM) was 0.986, the relative viability ([6]; first compound 20 µM) was 0.999 and the relative viability ([7]; first compound 0.2 µM) was 1.11. The relative viability ([7]; first compound 0.6325 µM) was 0.93, the relative viability ([7]; first compound 2 µM) was 0.803 and the relative viability ([7]; first compound 6.325 µM) was 1.25. The relative viability ([7]; first compound 20 µM) was 0.195, the relative viability ([8]; first compound 0.2 µM) was 1.16 and the relative viability ([8]; first compound 0.6325 µM) was 0.851. The relative viability ([8]; first compound 2 µM) was 0.943, the relative viability ([8]; first compound 6.325 µM) was 1.06 and the relative viability ([8]; first compound 20 µM) was 0.845. It also gave a relative viability ([9]; first compound 0.2 µM) of 1.35, a relative viability ([9]; first compound 0.6325 µM) of 1.04 and a relative viability ([9]; first compound 2 µM) of 1.13. The relative viability ([9]; first compound 6.325 µM) was 1.15, the relative viability ([9]; first compound 20 µM) was 1.04 and the relative viability ([10]; first compound 0.2 µM) was 1.13. The relative viability ([10]; first compound 0.6325 µM) was 1.01, the relative viability ([10]; first compound 2 µM) was 0.971 and the relative viability ([10]; first compound 6.325 µM) was 1.1. It also gave a relative viability ([10]; first compound 20 µM) of 0.956, a relative viability ([11]; first compound 0.2 µM) of 1.11 and a relative viability ([11]; first compound 0.6325 µM) of 0.892. It also gave a relative viability ([11]; first compound 2 µM) of 0.877, a relative viability ([11]; first compound 6.325 µM) of 0.974 and a relative viability ([11]; first compound 20 µM) of 0.975. The relative viability ([12]; first compound 0.2 µM) was 1.12, the relative viability ([12]; first compound 0.6325 µM) was 0.588 and the relative viability ([12]; first compound 2 µM) was 0.544. It also gave a relative viability ([12]; first compound 6.325 µM) of 0.715, a relative viability ([12]; first compound 20 µM) of 0.163 and a relative viability ([13]; first compound 0.2 µM) of 1.11. The relative viability ([13]; first compound 0.6325 µM) was 0.981, the relative viability ([13]; first compound 2 µM) was 0.695 and the relative viability ([13]; first compound 6.325 µM) was 1.07. It also gave a relative viability ([13]; first compound 20 µM) of 0.91, a relative viability ([14]; first compound 0.2 µM) of 1.29 and a relative viability ([14]; first compound 0.6325 µM) of 0.97. It also gave a relative viability ([14]; first compound 2 µM) of 0.954, a relative viability ([14]; first compound 6.325 µM) of 1.05 and a relative viability ([14]; first compound 20 µM) of 0.0202. The relative viability ([15]; first compound 0.2 µM) was 0.526, the relative viability ([15]; first compound 0.6325 µM) was 0.428 and the relative viability ([15]; first compound 2 µM) was 0.533. For the same molecule, the relative viability ([15]; first compound 6.325 µM) was 0.47, the relative viability ([15]; first compound 20 µM) was 0.0592 and the relative viability ([16]; first compound 0.2 µM) was 1.15. The relative viability ([16]; first compound 0.6325 µM) was 0.838, the relative viability ([16]; first compound 6.325 µM) was 1.01 and the relative viability ([16]; first compound 20 µM) was 0.0138. For the same molecule, the relative viability ([17]; first compound 0.2 µM) was 0.853, the relative viability ([17]; first compound 0.6325 µM) was 0.75 and the relative viability ([17]; first compound 6.325 µM) was 0.888. It also gave a relative viability ([17]; first compound 20 µM) of 0.864, a relative viability ([18]; first compound 0.2 µM) of 1.09 and a relative viability ([18]; first compound 0.6325 µM) of 0.957. The relative viability ([18]; first compound 2 µM) was 1.15, the relative viability ([18]; first compound 6.325 µM) was 0.892 and the relative viability ([18]; first compound 20 µM) was 0.103.
